EP0309789A1, “4-Oxo-3-quinolinecarboxylic acids useful as antibacterial agents and preparation thereof” (STERLING WINTHROP INC., priority 1987, dated 1989)
Values after ≈ are worked out from the molar mass of the structure shown. Read-outs that look alike come from different tables or passages of the source.

Columns and labels:
[1] = system: Bacteroides fragilis; assay: In vitro antimicrobial activity, microplate dilution procedure (MIC), anaerobic; format: cell-based
Procedure: (§1) The in vitro antimicrobial activity of the compounds of the invention was determined by a microplate dilution procedure. […] Resulting suspensions were diluted 1/10 in the appropriate broth or used undiluted for the inoculum. […] The compounds were then serially diluted two-fold in DMSO to give a working stock concentration range plate. The last row of wells was left compound-free receiving only DMSO to serve as a growth control. Five mcl from each well of the working stock plate was transferred to corresponding wells of a separate plate containing 95 mcl/well of the appropriate broth. All dilutions were made with either an automated dilutor or manually. […] Plates were incubated as described above and read for visible growth. The minimal inhibitory concentration (MIC: expressed in mcg/ml) of each compound tested against each test microorganism was determined as the lowest concentration of compound which prevents visible microbial growth.

[2] = system: E. coli; assay: In vivo antibacterial activity in infected mice (protective dose); conditions: Mouse, one-half hour postinfection, deaths recorded for seven days; for E. coli (PD₅₀) sc: subcutaneous
Procedure: (§2) The in vivo antibacterial activity of the compounds of the invention was determined in female mice, 18-20 grams each. Aqueous solutions of the compounds to be tested were prepared by dissolving the free acid form in dilute sodium hydroxide and diluting the solution with distilled water to the desired concentration. Cultures of E. coli were grown in brain heart infusion broth, and the mice were inoculated intraperitoneally with 0.5 ml of the bacterial test inoculum suspended in saline. Cultures of Staph. aureus were thawed from frozen pooled stocks and mixed with 5% mucin. A 0.5 ml preparation was used to infect mice by i.p. inoculation. The mice were medicated subcutaneously (sc) or orally (po) with 0.5 ml of the test compound solution one-half hour postinfection. Deaths were recorded daily for seven days. Fifty percent protective dose values (PD₅₀) were calculated using probit analysis.

[3] = system: Staph. aureus; assay: as above; conditions: for Staph. aureus (PD₅₀) po / Staph. aureus (PD₅₀) sc: Mouse, one-half hour postinfection, deaths recorded for seven days; for Staph. aureus (PD₅₀) sc: subcutaneous; for activity relative to the prior art compounds: Staph. aureus, in vivo mouse, from Table II
Procedure: as §2

[4] = system: Streptococcus pneumoniae; assay: In vitro antimicrobial activity, microplate dilution procedure (MIC); format: cell-based
Procedure: as §1

[5] = system: Pseudomonas aeruginosa; assay: as above; format: cell-based; conditions: read-out: PA MIC
Procedure: as §1

[6] = system: Micrococcus luteus; assay: as above; format: cell-based
Procedure: as §1

[7] = system: Streptococcus faecalis; assay: as above; format: cell-based; conditions: Enterococcus faecalis
Procedure: as §1

[8] = system: Staphylococcus aureus; assay: as above; format: cell-based; conditions: for activity relative to compound R / activity relative to compounds P and Q: from Table I; for MIC: Staphylococcus aureus
Procedure: as §1

[9] = system: Escherichia coli; assay: as above; format: cell-based
Procedure: as §1

[10] = Serum levels in monkeys after oral dosing; format: in vivo; conditions: 25 mg/kg oral dosing; for half-life: monkey
Procedure: In monkeys, compounds A and C gave high and prolonged serum levels after 25 mg/kg oral dosing.

[11] = Streptococcus faecalis, read-out: SF MIC
[12] = Strep. pneumoniae, read-out: MIC

| SMILES | MIC ([1]; anaerobic, read-out: BF MIC) | MIC ([4]; read-out: SP MIC) | MIC [5] | MIC ([6]; read-out: ML MIC) | MIC [7, 11] | MIC ([8]; read-out: SA MIC) | MIC ([9]; read-out: EC MIC) | E. coli (PD₅₀) po [2] | E. coli (PD₅₀) sc [2] | Staph. aureus (PD₅₀) po [3] | Staph. aureus (PD₅₀) sc [3] | activity relative to the prior art compounds [3] | activity relative to compound R ([8]; Staph. aureus) | activity relative to compounds P and Q ([8]; Staph. aureus) | further results |
| --- | --- | --- | --- | --- | --- | --- | --- | --- | --- | --- | --- | --- | --- | --- | --- |
| Cc1cc(-c2c(F)c(F)c3c(=O)c(C(=O)O)cn(C4CC4)c3c2F)cc(C)n1 [B, 1-Cyclopropyl-7-(2,6-dimethyl-4-pyridinyl)-5,6,8-trifluoro-1,4-dihydro-4-oxo-3-quinolinecarboxylic acid] | 0.5 µg/mL (≈ 1.29 µM) | 0.03 µg/mL (≈ 0.0773 µM) | 8 µg/mL (≈ 20.6 µM) | 0.5 µg/mL (≈ 1.29 µM) | 0.06 µg/mL (≈ 0.155 µM) | 0.008 µg/mL (≈ 0.0206 µM) | 0.125 µg/mL (≈ 0.322 µM) | 10.8 mg/kg | 8.9 mg/kg | 0.14 mg/kg | 0.08 mg/kg | 9-30 times | four times as active | thirty times as active |  |
| Cc1cc(-c2c(F)c(Sc3ccccc3)c3c(=O)c(C(=O)O)cn(C4CC4)c3c2F)cc(C)n1 [Example 6(c), 1-cyclopropyl-7-(2,6-dimethyl-4-pyridinyl)-6,8-difluoro-5-(phenylthio)-1,4-dihydro-4-oxo-3-quinolinecarboxylic acid] |  |  |  |  |  |  |  |  |  |  |  |  |  |  | MIC ([1]; B. fragilis, read-out: MIC): 16 µg/mL (≈ 33.4 µM); MIC [4, 12]: 2 µg/mL (≈ 4.18 µM); MIC ([6]; M. luteus, read-out: MIC): 16 µg/mL (≈ 33.4 µM); MIC ([7]; Strep. faecalis, read-out: MIC): 16 µg/mL (≈ 33.4 µM); MIC ([8]; Staph. aureus, read-out: MIC): 1 µg/mL (≈ 2.09 µM) |
| Cc1cc(-c2c(F)cc3c(=O)c(C(=O)O)cn(C4CC4)c3c2SCc2ccccc2)cc(C)n1 [Example 7, 1-cyclopropyl-7-(2,6-dimethyl-4-pyridinyl)-6-fluoro-1,4-dihydro-4-oxo-8-(benzylthio)-3-quinolinecarboxylic acid] |  |  |  |  |  |  |  |  |  |  |  |  |  |  | MIC ([1]; B. fragilis, read-out: MIC): 64 µg/mL (≈ 135 µM); MIC [4, 12]: 2 µg/mL (≈ 4.21 µM); MIC ([6]; M. luteus, read-out: MIC): 64 µg/mL (≈ 135 µM); MIC ([7]; Strep. faecalis, read-out: MIC): 2 µg/mL (≈ 4.21 µM); MIC ([8]; Staph. aureus, read-out: MIC): < 0.125 µg/mL; MIC ([9]; E. coli, read-out: MIC): 4 µg/mL (≈ 8.43 µM) |
| O=C(O)c1cn(C2CC2)c2cc(N3CCNCC3)c(F)cc2c1=O [Q, 1-Cyclopropyl-6-fluoro-7-(1-piperazinyl)-1,4-dihydro-4-oxo-3-quinolinecarboxylic acid, reference compound] | 2 µg/mL (≈ 6.04 µM) | 0.25 µg/mL (≈ 0.754 µM) | 0.125 µg/mL (≈ 0.377 µM) | 2 µg/mL (≈ 6.04 µM) | 0.5 µg/mL (≈ 1.51 µM) | 0.25 µg/mL (≈ 0.754 µM) | 0.004 µg/mL (≈ 0.0121 µM) |  |  |  |  |  |  |  |  |

Further lines, with some results ahead:

| MIC ([1]; anaerobic, read-out: BF MIC) | MIC ([4]; read-out: SP MIC) | MIC [5] | MIC ([6]; read-out: ML MIC) | MIC [7, 11] | MIC ([8]; read-out: SA MIC) | MIC ([9]; read-out: EC MIC) | SMILES | E. coli (PD₅₀) po [2] | E. coli (PD₅₀) sc [2] | Staph. aureus (PD₅₀) po [3] | Staph. aureus (PD₅₀) sc [3] | activity relative to the prior art compounds [3] | activity relative to compound R ([8]; Staph. aureus) | activity relative to compounds P and Q ([8]; Staph. aureus) | further results |
| --- | --- | --- | --- | --- | --- | --- | --- | --- | --- | --- | --- | --- | --- | --- | --- |
| 0.125 µg/mL (≈ 0.338 µM) | 0.016 µg/mL (≈ 0.0432 µM) | 4 µg/mL (≈ 10.8 µM) | 0.25 µg/mL (≈ 0.675 µM) | 0.06 µg/mL (≈ 0.162 µM) | 0.008 µg/mL (≈ 0.0216 µM) | 0.06 µg/mL (≈ 0.162 µM) | Cc1cc(-c2c(F)cc3c(=O)c(C(=O)O)cn(C4CC4)c3c2F)cc(C)n1 [C, 1-Cyclopropyl-6,8-difluoro-7-(2,6-dimethyl-4-pyridinyl)-1,4-dihydro-4-oxo-3-quinolinecarboxylic acid] | 5.7 mg/kg | 6.1 mg/kg | 0.09 mg/kg | 0.06 mg/kg | 9-30 times | four times as active | thirty times as active | maximum concentration [10]: 34 µg/mL; time of maximum concentration [10]: 5.5 h; half-life [10]: 20 h |
| 0.5 µg/mL (≈ 1.42 µM) | 0.03 µg/mL (≈ 0.0851 µM) | 2 µg/mL (≈ 5.68 µM) | 0.5 µg/mL (≈ 1.42 µM) | 0.06 µg/mL (≈ 0.17 µM) | 0.008 µg/mL (≈ 0.0227 µM) | 0.03 µg/mL (≈ 0.0851 µM) | Cc1cc(-c2cc3c(cc2F)c(=O)c(C(=O)O)cn3C2CC2)cc(C)n1 [Compound A, 1-Cyclopropyl-7-(2,6-dimethyl-4-pyridinyl)-6-fluoro-1,4-dihydro-4-oxo-3-quinolinecarboxylic acid] | 3.8 mg/kg | 3.1 mg/kg | 0.20 mg/kg | 0.08 mg/kg | 9-30 times | four times as active | thirty times as active | maximum concentration [10]: 13 µg/mL; time of maximum concentration [10]: 7 h; half-life [10]: 13 h |
| 16 µg/mL (≈ 49.6 µM) | 2 µg/mL (≈ 6.2 µM) | 32 µg/mL (≈ 99.3 µM) | 8 µg/mL (≈ 24.8 µM) | 1 µg/mL (≈ 3.1 µM) | 0.25 µg/mL (≈ 0.776 µM) | 0.25 µg/mL (≈ 0.776 µM) | CCn1cc(C(=O)O)c(=O)c2ccc(-c3cc(C)nc(C)c3)cc21 [P, 7-(2,6-Dimethyl-4-pyridinyl)-1-ethyl-1,4-dihydro-4-oxo-3-quinolinecarboxylic acid, reference compound] | 17.9 mg/kg | 13.5 mg/kg | 3.8 mg/kg | 2.37 mg/kg |  |  |  |  |
| 2 µg/mL (≈ 5.88 µM) | 0.25 µg/mL (≈ 0.735 µM) | 4 µg/mL (≈ 11.8 µM) | 0.5 µg/mL (≈ 1.47 µM) | 0.25 µg/mL (≈ 0.735 µM) | 0.03 µg/mL (≈ 0.0881 µM) | 0.06 µg/mL (≈ 0.176 µM) | CCn1cc(C(=O)O)c(=O)c2cc(F)c(-c3cc(C)nc(C)c3)cc21 [R, 7-(2,6-Dimethyl-4-pyridinyl)-1-ethyl-6-fluoro-1,4-dihydro-4-oxo-3-quinolinecarboxylic acid, reference compound] | 8.24 mg/kg | 5.39 mg/kg | 1.38 mg/kg | 0.71 mg/kg |  |  |  |  |
